Laboratory results published in patent US20080096967A1, “Formulations for Injection of Catecholic Butanes, Including Ndga Compounds, Into Animals” (priority 2005, published 2008).

Experiment: Solubility and room temperature stability of M4N in modified cyclodextrin / PEG formulations (visual inspection)
Type: physicochemical
Protocol: A 100 mL solution of 40% HP-β-CD for use as a solubilizing agent and/or excipient was made as follows: 65 mL of WFI were placed in a glass beaker containing a stir bar. The beaker was placed on a magnetic plate, and the stir bar was set to stir at medium speed. About forty (40) grams of HP-β-CD were added slowly to the stirring WFI, using a spatula to direct the HP-β-CD to the center of the beaker so as to prevent HP-β-CD crystals from sticking to the beaker wall. The HP-β-CD solution was stirred for about 24 hr or until the HP-β-CD was dissolved completely upon visual inspection. The resulting solution measured about 93 mL. About 7 mL of WFI was added to this resulting solution to obtain 100 mL, producing a final solution of about 40% HP-β-CD. The final solution was stirred for about 1 hr, stored at room temperature, and was protected from light. This method of making the modified cyclodextrin solution may be scaled up or down to obtain the desired volume or concentration. Other concentrations or other modified cyclodextrin solutions may be similarly made, for example, by substituting HP-β-CD with other modified cyclodextrins, adjusted for the appropriate concentrations in the process described above.
A 10 mL solution of M4N at a concentration of about 10 mg/mL in 40% HP-β-CD was made as follows. About 10 mL of the 40% HP-β-CD solution were added to a glass beaker containing a stir bar. The beaker was placed on a magnetic plate and the stir bar was set to stir at medium speed. About […] of M4N were slowly added to the 40% HP-β-CD in the center of the beaker with the aid of a spatula. The M4N/40% HP-β-CD mixture was stirred for 2 hr or until all M4N was uniformly suspended without any clumps being present. The M4N/40% HP-β-CD mixture was optionally heated at 80° C. for about 30 min. (or longer if a larger volume of solution was desired, for example, 1 hr at 80° C. for 100 mL of the M4N/HP-β-CD mixture), or longer as needed to ensure complete dissolution of M4N. […] The final M4N/40% HP-β-CD solution was stored at room temperature and was kept protected from light. This process may be scaled up or down to obtain the requisite volume or concentration of M4N. Formulations containing M4N in other cyclodextrin solutions may be similarly made, such as, for example, by substituting HP-β-CD in the process described above with other cyclodextrins.
A 100 mL solution of M4N at a concentration of about 25 mg/mL in PEG 300 was made as follows. About 100 mL of PEG 300 were added to a glass beaker containing a stir bar. The beaker was placed on a magnetic plate and the stir bar was set to stir at medium speed. About 2.5 g of M4N were slowly added to the PEG 300 in the center of the beaker with the aid of a spatula to prevent M4N from sticking to the beaker wall. The M4N/PEG 300 mixture was stirred for 24 hr or until all M4N had dissolved or was uniformly suspended without any clumps being present. The M4N/PEG 300 mixture was optionally heated at about 60° C. for about 30 min. (or longer if a larger volume of solution was desired, for example, 1 hr at 60° C. for 500 mL of the M4N/PEG 300 mixture), or longer as needed to ensure complete dissolution of M4N. […] If crystals formed, the M4N/PEG 300 solution could be heated again at 60° C. for about 1 hr, with stirring, on a hot magnetic plate until all M4N was dissolved back in solution. The final M4N/PEG 300 solution was stored at room temperature and was kept protected from light. This process may be scaled up or down to obtain the requisite volume or concentration of M4N. Formulations containing M4N in other PEGs may be similarly made, such as, for example, by substituting PEG 300 in the process described above with PEG 400 or PEG 400 monolaurate. […]

## COc1ccc(C[C@@H](C)[C@@H](C)Cc2ccc(OC)c(OC)c2)cc1OC [Formulation M4N, meso-1,4-bis(3,4-dimethoxyphenyl)-2,3-dimethylbutane]
1.50% β-CD, M4N 1 mg/mL, 90°
  Dissolution After Heating at X ° C.: N at 90°
1.50% β-CD, M4N 10 mg/mL, 90°
  Dissolution After Heating at X ° C.: N at 90°
5% HP-β-CD, 12.5% PEG 300 (v/v), M4N 3.13 mg/mL
  Stability at Room Temperature: <7 days
5% HP-β-CD, 12.5% PEG 300 (v/v), M4N 3.13 mg/mL, 60°
  Dissolution After Heating at X ° C.: Y at 60°
5% γ-CD, M4N 1 mg/mL, 90°
  Dissolution After Heating at X ° C.: N at 90°
6.7% HP-β-CD, 16.7% PEG 300 (v/v), M4N 4.17 mg/mL
  Stability at Room Temperature: >7 days
6.7% HP-β-CD, 16.7% PEG 300 (v/v), M4N 4.17 mg/mL, 60°
  Dissolution After Heating at X ° C.: Y at 60°
10% HP-β-CD, 25% PEG 300 (v/v), M4N 6.25 mg/mL
  Stability at Room Temperature: >7 days
10% HP-β-CD, 25% PEG 300 (v/v), M4N 6.25 mg/mL, 60°
  Dissolution After Heating at X ° C.: Y at 60°
10% HP-β-CD, 77% PEG 300 (v/v), M4N 19.3 mg/mL, 60°
  Dissolution After Heating at X ° C.: Y at 60°
12.5% HP-β-CD, 50% PEG 300 (v/v), M4N 12.5 mg/mL
  Stability at Room Temperature: <1 days
12.5% HP-β-CD, 50% PEG 300 (v/v), M4N 12.5 mg/mL, 60°
  Dissolution After Heating at X ° C.: Y at 60°
13% HP-β-CD, 67% PEG 300 (v/v), M4N 16.7 mg/mL, 60°
  Dissolution After Heating at X ° C.: Y at 60°
15% HP-β-CD, 50% PEG 300 (v/v), M4N 12.5 mg/mL
  Stability at Room Temperature: <7 days
15% HP-β-CD, 50% PEG 300 (v/v), M4N 12.5 mg/mL, 60°
  Dissolution After Heating at X ° C.: Y at 60°
15% α-CD, M4N 10 mg/mL, 90°
  Dissolution After Heating at X ° C.: N at 90°
15% α-CD, M4N 50 mg/mL, 90°
  Dissolution After Heating at X ° C.: N at 90°
15% α-CD, M4N 100 mg/mL, 90°
  Dissolution After Heating at X ° C.: N at 90°
20% HP-β-CD, 50% PEG 300 (v/v), M4N 12.5 mg/mL
  Stability at Room Temperature: >7 days
20% HP-β-CD, 50% PEG 300 (v/v), M4N 12.5 mg/mL, 60°
  Dissolution After Heating at X ° C.: Y at 60°
20% HP-β-CD, M4N 1 mg/mL
  Stability at Room Temperature: >7 days
20% HP-β-CD, M4N 1 mg/mL, 90°
  Dissolution After Heating at X ° C.: Y at 90°
20% HP-β-CD, M4N 10 mg/mL, 90°
  Dissolution After Heating at X ° C.: N at 90°
23% HP-β-CD, 43 PEG 300 (v/v), M4N 12.9 mg/mL
  Stability at Room Temperature: >7 days
23% HP-β-CD, 43 PEG 300 (v/v), M4N 12.9 mg/mL, 60°
  Dissolution After Heating at X ° C.: Y at 60°
27% HP-β-CD, 33% PEG 300 (v/v), M4N 13.3 mg/mL
  Stability at Room Temperature: >7 days
27% HP-β-CD, 33% PEG 300 (v/v), M4N 13.3 mg/mL, 60°
  Dissolution After Heating at X ° C.: Y at 60°
27% HP-β-CD, 33% PEG 400 (v/v), M4N 13.3 mg/mL
  Stability at Room Temperature: >7 days
30% HP-β-CD, 25% PEG 400 (v/v), M4N 12.5 mg/mL
  Stability at Room Temperature: >7 days
30% HP-β-CD, 25% PEG 400 (v/v), M4N 12.5 mg/mL, 60°
  Dissolution After Heating at X ° C.: Y at 60°
30% HP-β-CD, M4N 1 mg/mL
  Stability at Room Temperature: >7 days
30% HP-β-CD, M4N 1 mg/mL, 90°
  Dissolution After Heating at X ° C.: Y at 90°
30% HP-β-CD, M4N 10 mg/mL
  Stability at Room Temperature: <3 days
30% HP-β-CD, M4N 10 mg/mL, 90°
  Dissolution After Heating at X ° C.: Y at 90°
30% HP-β-CD, M4N 20 mg/mL, 90°
  Dissolution After Heating at X ° C.: N at 90°
30% HP-β-CD, M4N 50 mg/mL, 90°
  Dissolution After Heating at X ° C.: N at 90°
30% HP-β-CD, M4N 100 mg/mL, 90°
  Dissolution After Heating at X ° C.: N at 90°
32% HP-β-CD, 20% PEG 400 (v/v), M4N 10 mg/mL
  Stability at Room Temperature: >7 days
32% HP-β-CD, 20% PEG 400 (v/v), M4N 10 mg/mL, 60°
  Dissolution After Heating at X ° C.: Y at 60°
40% HP-β-CD, 1% PVP (w/v), M4N 1 mg/mL
  Dissolution After Heating at X ° C.: N
40% HP-β-CD, 1% PVP (w/v), M4N 10 mg/mL
  Dissolution After Heating at X ° C.: N
40% HP-β-CD, 2.5% PG (v/v), M4N 1 mg/mL, 80°
  Dissolution After Heating at X ° C.: N at 80°
40% HP-β-CD, 2.5% PG (v/v), M4N 10 mg/mL, 80°
  Dissolution After Heating at X ° C.: N at 80°
40% HP-β-CD, M4N 1 mg/mL
  Stability at Room Temperature: >7 days
40% HP-β-CD, M4N 1 mg/mL, 80°
  Dissolution After Heating at X ° C.: Y at 80°
40% HP-β-CD, M4N 10 mg/mL
  Stability at Room Temperature: >7 days
40% HP-β-CD, M4N 10 mg/mL, 80°
  Dissolution After Heating at X ° C.: Y at 80°
40% HP-β-CD, M4N 12 mg/mL, 80°
  Dissolution After Heating at X ° C.: N at 80°
40% HP-β-CD, M4N 14 mg/mL, 80°
  Dissolution After Heating at X ° C.: N at 80°
40% HP-β-CD, M4N 16 mg/mL, 80°
  Dissolution After Heating at X ° C.: N at 80°
40% HP-β-CD, M4N 20 mg/mL, 80°
  Dissolution After Heating at X ° C.: N at 80°
40% HP-β-CD, M4N 50 mg/mL, 80°
  Dissolution After Heating at X ° C.: N at 80°
40% HP-β-CD, M4N 100 mg/mL, 80°
  Dissolution After Heating at X ° C.: N at 80°
50% HP-β-CD in saline, M4N 10 mg/mL
  Stability at Room Temperature: >7 days
50% HP-β-CD in saline, M4N 10 mg/mL, 90°
  Dissolution After Heating at X ° C.: Y at 90°
50% HP-β-CD, 1.25% PVP (w/v), M4N 1 mg/mL
  Stability at Room Temperature: <3 days
50% HP-β-CD, 1.25% PVP (w/v), M4N 1 mg/mL, 90°
  Dissolution After Heating at X ° C.: Y at 90°
50% HP-β-CD, 1.25% PVP (w/v), M4N 10 mg/mL
  Dissolution After Heating at X ° C.: N
50% HP-β-CD, 1.25% PVP (w/v), M4N 50 mg/mL
  Dissolution After Heating at X ° C.: N
50% HP-β-CD, M4N 1 mg/mL
  Stability at Room Temperature: >7 days
50% HP-β-CD, M4N 1 mg/mL, 90°
  Dissolution After Heating at X ° C.: Y at 90°
50% HP-β-CD, M4N 10 mg/mL
  Stability at Room Temperature: >7 days
50% HP-β-CD, M4N 10 mg/mL, 90°
  Dissolution After Heating at X ° C.: Y at 90°
50% HP-β-CD, M4N 20 mg/mL, 90°
  Dissolution After Heating at X ° C.: N at 90°
50% HP-β-CD, M4N 50 mg/mL, 90°
  Dissolution After Heating at X ° C.: N at 90°
50% HP-β-CD, M4N 100 mg/mL, 90°
  Dissolution After Heating at X ° C.: N at 90°
M4N 1 mg/mL and 10 mg/mL in 40% HP-β-CD
  remained in solution after cooling: greater than 7 days
